Test results from publication PMC9737772, “Synthesis and Anti-Inflammatory Activity of 1-Methylhydantoin Cinnamoyl Imides” (Molecules, 2022).

Key:
[1] = Cytotoxicity determination by CCK-8; assay type: cell-based; conditions: mouse, RAW264.7 macrophage cells, RAW264.7 cells
Description: (§1) RAW264.7 mouse macrophages were purchased from Zhongqiao Xinzhou and cultured in DMEM supplemented with 10% fetal bovine serum (FBS) and 1% penicillin/streptomycin in a 37 °C, 5% CO2 incubator. The cells were passaged every two days to maintain the monolayer cell state.
The CCK-8 kit was used to determine the cytotoxicity of the target compounds (1–5) to RAW264.7 cells. The well-growing cells were subcultured in a 96-well plate. After the cells adhered to the wall, the experimental group was added with a medium containing different concentrations of compounds to make the final concentration reach 5, 10, 20, 40, 80, 160 and 320 μmoL/L. The control group was added with a medium without compound, and a blank group without cells or compound was set at the same time. After culturing in a constant temperature incubator for a period, CCK-8 solution was added to produce yellow formazan product. The OD value was measured by the microplate reader at the detection wavelength of 450 nm, and the cell survival rate was calculated. The cell survival rate formula is as follows:(1) Cell Survival Rate %=ODe−ODb/ODc−ODb×100% where ODe was the OD value of the experimental group, ODb was the OD value of the blank group, and ODc was the OD value of the control group.

[2] = system: TNF-α secretion in RAW264.7 cells induced by LPS; test: TNF-α content in supernatant of LPS-induced RAW264.7 cells (ELISA); assay type: cell-based, mouse; conditions: 20 μM, LPS 1 ug/mL, 24 h, RAW264.7, vs model group
Description: Tumor necrosis factor-α (TNF-α) is a pleiotropic proinflammatory cytokine, known for its proinflammatory activity. To explore the inhibitory effects of five compounds on TNF-α, ELISA was used to determine the content of inflammatory factor TNF-α in the supernatant of RAW264.7 cells stimulated by LPS. RAW264.7 cells secreted a large amount of inflammatory-factor TNF-α 24 h after LPS (1 ug/mL) induction.
as §1
(§2) The RAW264.7 cells in the logarithmic growth phase were seeded in a 24-well plate and placed in a 37 °C, 5% CO2 constant temperature incubator for culture. After 24 h, the culture medium was discarded. The blank group was added with 10% FBS DMEM 1 mL. The group was added with a medium containing 1 ug/mL LPS, and the experimental group was added with LPS and different concentrations of the target compound to make the final volume 1 mL. After 24 h of culture, the cell supernatant was taken and stored in a refrigerator at −20 °C for later use. The Griess kit was used to determine the concentration of NO in the supernatant, and a double antibody sandwich ELISA kit was used to detect TNF-α and IL-1β.

[3] = system: IL-1β secretion in RAW264.7 cells induced by LPS; test: IL-1β content in supernatant of LPS-induced RAW264.7 cells (ELISA); assay type: cell-based, mouse; conditions: 20 μM, LPS, 24 h, RAW264.7, vs model group
Excerpt: Interleukin-1β (IL-1β) has strong proinflammatory activity and can induce the production of a variety of proinflammatory mediators, such as cytokines and chemokines. In this work, the ELISA method was used to determine the IL-1β content in the supernatant of RAW264.7 cells stimulated by LPS to evaluate the effects of five compounds on IL-1β secretion.
as §1, §2

[4] = system: xylene-induced ear edema in mice; test: Xylene-induced ear edema in mice; assay type: in vivo, Kunming mice; conditions: for Degree of Edema: 30 μL xylene, 30 min, mean ± SD, n = 6; for Inhibition of ear swelling: xylene-induced ear edema
Description: To evaluate the differences in anti-inflammatory effects of the five compounds, the in vivo anti-inflammatory experiment was conducted based on the acute inflammation model of ear swelling induced by xylene. Under the inflammatory effect of 30 μL of xylene, the degree of ear swelling in the blank group and each experimental group was different. […] With an increase in dose the degree of ear swelling decreased, and the effect of ear swelling inhibition was more significant at high dose (100 mg/kg). Under the action of drugs, the five target compounds (1–5) have significant inhibitory effects on ear swelling (Figure 6).
Adult male Kunming mice (18–20 g) were bought from Liaoning Changsheng Biotechnology Co., Ltd. (Shenyang, China, License No. SCXK (Liao) 2015-0001). The breeding is carried out under standard conditions without pathogens (constant room temperature 20–22 °C, 55 ± 5% humidity, 12 h light–dark cycle and free access to food and water). The research protocol has been approved by the Animal Experiment Ethics Committee of the School of Pharmacy of Jilin University (20190048). All experimental operations follow the principles of laboratory animal care, and all animal experiments are conducted in accordance with the Guide for the Care and Use of Laboratory Animals (released by the National Research Council).
In this experiment, Kunming mice were randomly divided into two groups. One group was given 5% sodium carboxymethyl cellulose solution as the blank group, and the other group was given different concentrations of the target compound as the experimental group (high, medium and low doses); continuous intragastric administration was two days and the volume of intragastric administration was 0.2 mL. One hour after the last administration, 30 μL of xylene was evenly smeared on both sides of the mouse’s right ear. After 30 min, the mouse’s right ear was obviously red and swollen and the capillary congestion was severe. Cervical vertebrae were dislocated and sacrificed. The ears on both sides were quickly cut off, an 8 mm ear punch was used to punch holes at the same position on the ears on both sides and they were immediately weighed to calculate the weight difference.
The formula for the difference in ear weight is as follows:(2) D=Wr−Wl where Wr was the weight of the right ear and Wl was the weight of the left ear.
The formula for the inhibition rate of ear swelling is as follows:(3) Inhibition %=Dc−Dt/Dc×100% where Dc was the extent of ear edema of the control group and Dt was the extent of ear edema of the treatment group.

[5] = system: xylene-induced ear edema in mice; parameters: method as in PMID 31247960, doi:10.2174/157018012800673092; conditions: previous study; cited from earlier work
[6] = 25 mg/kg intragastric for two days
[7] = 50 mg/kg intragastric for two days
[8] = 100 mg/kg (high dose) intragastric
[9] = 100 mg/kg intragastric for two days

Row | Compound | CC50 [1] | inhibition of TNF-α secretion [2] | inhibition of IL-1β secretion [3] | Degree of Edema [4, 6] | Inhibition of ear swelling ([4]; 25 mg/kg intragastric) | Degree of Edema [4, 7] | Inhibition of ear swelling ([4]; 50 mg/kg intragastric) | Inhibition of ear swelling [4, 8] | Degree of Edema [4, 9] | melting point | effect on ear edema in mice caused by xylene [5]
1 | CN1CC(=O)N(C(=O)/C=C/c2ccc3c(c2)OCO3)C1=O [Compound 3, (E)-3-(3-(benzo[d][1,3]dioxol-5-yl)acryloyl)-1-methylimidazolidine-2,4-dione] | 184 µM | no obvious inhibitory effect on TNF-α | no obvious inhibitory effect on IL-1β | 9.41 ± 1.37 mg | 23.18% | 9.05 ± 0.84 mg | 26.12% | 33.06% | 8.20 ± 0.27 mg | 164.8 to 166.1 °C | 
2 | CN1CC(=O)NC1=O [MHD, 1-Methylhydantoin] |  |  |  |  |  |  |  |  |  |  | can reduce ear edema in mice caused by xylene
3 | CN1CC(=O)N(C(=O)C=Cc2ccccc2)C1=O [Compound 1, 3-cinnamoyl-1-methylimidazolidine-2,4-dione] | 264 µM | no obvious inhibitory effect on TNF-α | no obvious inhibitory effect on IL-1β | 9.84 ± 0.72 mg | 19.67% | 8.47 ± 0.64 mg | 30.86% | 44.16% | 6.84 ± 0.61 mg | 140.6 to 141.5 °C | 
4 | COc1cc(/C=C/C(=O)N2C(=O)CN(C)C2=O)ccc1OC(C)=O [Compound 5, (E)-2-methoxy-4-(3-(3-methyl-2,5-dioxoimidazolidin-1-yl)-3-oxoprop-1-en-1-yl)phenyl acetate] | 232 µM | no obvious inhibitory effect on TNF-α | no obvious inhibitory effect on IL-1β | 10.46 ± 0.64 mg | 14.61% | 7.95 ± 0.71 mg | 35.10% | 52.08% | 5.87 ± 0.75 mg | 148.3 to 149.8 °C | 
